pIC50: −log10 of the molar value.
Assays:
Hsp90 = experiment: Degradation of Hsp90 client proteins, Method 2: IC50 for Her2 degradation / inhibition of Hsp90 (MV-4-11 cell survival, Cell Counting Kit-8); assay type: cell-based, human; conditions: Table 9, MV-4-11 cells, 72 hours, read-out: IC50 Range
Her2 = experiment: Degradation of Her2 in BT-474 cells, Method 1 (Western blot); assay type: cell-based, human; conditions: 0.5 μM, overnight
Method: A. Cells and Cell Culture Human high-Her2 breast carcinoma BT474 (HTB-20), SK-BR-3 (HTB-30) and MCF-7 breast carcinoma (HTB-22) from American Type Culture Collection, VA, USA were grown in Dulbecco's modified Eagle's medium with 4 mM L-glutamine and antibiotics ([…] penicillin and 100 ug/ml streptomycine; GibcoBRL). To obtain exponential cell growth, cells were trypsinized, counted and seeded at a cell density of 0.5×10^6 cells/ml regularly, every 3 days. All experiments were performed on day 1 after cell passage. B. Degradation of her2 in Cells after Treatment with a Compound of the Invention
BT-474 cells are treated with 0.5 μM, 2 μM, or 5 μM of 17AAG (a positive control) or 0.5 μM, 2 μM, or 5 μM of a compound of the invention overnight in DMEM medium. After treatment, each cytoplasmic sample is prepared from 1×10^6 cells by incubation of cell lysis buffer (#9803, cell Signaling Technology) on ice for 10 minutes. The resulting supernatant used as the cytosol fractions is dissolved with sample buffer for SDS-PAGE and run on a SDS-PAGE gel, blotted onto a nitrocellulose membrane by using semi-dry transfer. Non-specific binding to nitrocellulose is blocked with 5% skim milk in TBS with 0.5% Tween at room temperature for 1 hour, then probed with anti-Her2/ErB2 mAb (rabbit IgG, #2242, Cell Signaling) and anti-Tubulin (T9026, Sigma) as housekeeping control protein. […]

Row | SMILES | pIC50 (Hsp90) | degradation of Her2 (Her2)
1 | COCCN(C)c1ccc(-n2c(O)nnc2-c2cc(C(C)C)c(O)cc2O)c[n+]1[O-] [Compound 3d] | 6.74 | 
2 | C=CCNC1=C2C[C@@H](C)C[C@H](OC)[C@H](O)[C@@H](C)/C=C(\C)[C@H](OC(N)=O)[C@@H](OC)/C=C\C=C(/C)C(=O)NC(=CC1=O)C2=O [Compound 17AAG, 17-allylamino-17-demethoxygeldanamycin] |  | partial degradation
